According to PubChem BioAssay AID330 (DTP/NCI, 2004):
Where “and” joins values, the source holds several entries; their conditions need not be identical. Equal entries are not always repeated. Inconclusive results and toxic doses are left out. Rule for the calls: active = survival T/C of 150% or more; inactive = T/C below 125% in these data.

Test system: P388 leukemia ip, CD2F1 mice, survival T/C
Assay: NCI In Vivo Anticancer Drug Screen. Data for tumor model P388 Leukemia (intraperitoneal) in CD2F1 (CDF1) mice
Conditions: endpoint: median survival time, higher = longer survival
In short: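 Mice carrying the transplanted tumor received test compound or vehicle. Survival was recorded in each group, and the value is the treated-group measurement divided by that of the vehicle-treated control group.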

[1] = dose: 50.0 mg/kg/injection, schedule: Q01DX009 (ip), vehicle: Klucel (hydroxypropylcellulose) (HPC)
[2] = dose: 100.0 mg/kg/injection, schedule: Q01DX009 (ip), vehicle: Klucel (hydroxypropylcellulose) (HPC)
[3] = dose: 200.0 mg/kg/injection, schedule: Q01DX009 (ip), vehicle: Klucel (hydroxypropylcellulose) (HPC)
[4] = dose: 100.0 mg/kg/injection, schedule: Q04DX003 (ip), vehicle: Klucel (hydroxypropylcellulose) (HPC)
[5] = dose: 200.0 mg/kg/injection, schedule: Q04DX003 (ip), vehicle: Klucel (hydroxypropylcellulose) (HPC)
[6] = dose: 400.0 mg/kg/injection, schedule: Q04DX003 (ip), vehicle: Klucel (hydroxypropylcellulose) (HPC)
[7] = dose: 60.0 mg/kg/injection, schedule: Q01DX005 (ip), vehicle: saline with Tween-80
[8] = dose: 120.0 mg/kg/injection, schedule: Q01DX005 (ip), vehicle: saline with Tween-80
[9] = dose: 100.0 mg/kg/injection, schedule: Q01DX009 (ip), vehicle: saline with Tween-80
[10] = dose: 200.0 mg/kg/injection, schedule: Q01DX009 (ip), vehicle: saline with Tween-80
[11] = dose: 100.0 mg/kg/injection, schedule: Q04DX002 (ip), vehicle: Klucel (hydroxypropylcellulose) (HPC)
[12] = dose: 200.0 mg/kg/injection, schedule: Q04DX002 (ip), vehicle: Klucel (hydroxypropylcellulose) (HPC)
[13] = dose: 400.0 mg/kg/injection, schedule: Q04DX002 (ip), vehicle: Klucel (hydroxypropylcellulose) (HPC)
[14] = dose: 30.0 mg/kg/injection, schedule: Q01DX005 (ip), vehicle: Klucel (hydroxypropylcellulose) (HPC)

Measured: T/C

FC(F)(F)c1nc2nccnc2[nH]1
inactive: dose: 50.0 mg/kg/injection, schedule: Q04DX003 (ip), vehicle: saline 100 % of control | dose: 100.0 mg/kg/injection, schedule: Q04DX003 (ip), vehicle: saline 100 % of control | dose: 200.0 mg/kg/injection, schedule: Q04DX003 (ip), vehicle: saline 100 % of control

Cn1cccc([N+](=O)[O-])c1=O
inactive: dose: 5.0 mg/kg/injection, schedule: Q01DX009 (ip), vehicle: saline 105 % of control and 109 % of control | dose: 10.0 mg/kg/injection, schedule: Q01DX009 (ip), vehicle: saline 101 % of control and 108 % of control | dose: 12.5 mg/kg/injection, schedule: Q01DX009 (ip), vehicle: saline 113 % of control and 114 % of control | dose: 20.0 mg/kg/injection, schedule: Q01DX009 (ip), vehicle: saline 102 % of control and 110 % of control | dose: 25.0 mg/kg/injection, schedule: Q01DX009 (ip), vehicle: saline 100 % of control and 107 % of control | dose: 40.0 mg/kg/injection, schedule: Q01DX009 (ip), vehicle: Klucel (hydroxypropylcellulose) (HPC) 100 % of control | dose: 40.0 mg/kg/injection, schedule: Q01DX009 (ip), vehicle: saline 105 % of control | dose: 60.0 mg/kg/injection, schedule: Q01DX009 (ip), vehicle: Klucel (hydroxypropylcellulose) (HPC) 104 % of control

C1CCSCCCCCSCCCCCSCCCCCSCC1
inactive: [1] 97 % of control | [2] 96 % of control | [3] 94 % of control

c1ccc(P23(Oc4ccccc4S2)Oc2ccccc2S3)cc1
inactive: [4] 93 % of control | [5] 90 % of control | [6] 91 % of control

CC(C)OC(CCC#N)c1ccc(Cl)cc1 (stereo unspecified)
inactive: dose: 50.0 mg/kg/injection, schedule: Q04DX003 (ip), vehicle: other 105 % of control | dose: 100.0 mg/kg/injection, schedule: Q04DX003 (ip), vehicle: other 114 % of control | dose: 200.0 mg/kg/injection, schedule: Q04DX003 (ip), vehicle: other 99 % of control

CSc1ccc(NC(=O)Oc2ccccc2I)cc1
inactive: [1] 104 % of control | [2] 104 % of control | [3] 109 % of control

O=P(OC1=CCCCC1)(c1ccccc1)c1ccccc1
inactive: [7] 99 % of control | [8] 100 % of control | dose: 240.0 mg/kg/injection, schedule: Q01DX005 (ip), vehicle: saline with Tween-80 97 % of control

CCCCCCCC/C=C\CCCCCCCCN1CN=C(N)N(C#N)C1
inactive: dose: 100.0 mg/kg/injection, schedule: Q04DX003 (ip), vehicle: saline with Tween-80 101 % of control | dose: 200.0 mg/kg/injection, schedule: Q04DX003 (ip), vehicle: saline with Tween-80 100 % of control | dose: 400.0 mg/kg/injection, schedule: Q04DX003 (ip), vehicle: saline with Tween-80 103 % of control

CC(=O)/C=C/c1ccccc1
inactive: dose: 25.0 mg/kg/injection, schedule: Q01DX009 (ip), vehicle: Klucel (hydroxypropylcellulose) (HPC) 103 % of control | [1] 101 % of control | [2] 101 % of control | [9] 108 % of control | [3] 103 % of control | [10] 109 % of control | dose: 400.0 mg/kg/injection, schedule: Q01DX009 (ip), vehicle: saline with Tween-80 119 % of control | dose: 600.0 mg/kg/injection, schedule: Q01DX009 (ip), vehicle: saline with Tween-80 117 % of control

O=C(N/N=C/c1ccccc1[OH2+])c1ccncc1.O=C(N/N=C/c1ccccc1[OH2+])c1ccncc1.[Cl-].[Mn+2]
inactive: [11] 112 % of control | [12] 107 % of control | [13] 94 % of control

COc1ccc(C2(O)OCC(COc3cc(C)c(Cl)c(C)c3)O2)cc1OC (stereo unspecified)
inactive: dose: 60.0 mg/kg/injection, schedule: Q01DX005 (ip), vehicle: DMSO 114 % of control | dose: 120.0 mg/kg/injection, schedule: Q01DX005 (ip), vehicle: DMSO 123 % of control | dose: 240.0 mg/kg/injection, schedule: Q01DX005 (ip), vehicle: DMSO 109 % of control

CCn1c(=O)c2[nH]c(SC)nc2n(CC)c1=O
inactive: dose: 16.0 mg/kg/injection, schedule: Q01DX009 (ip), vehicle: Klucel (hydroxypropylcellulose) (HPC) 105 % of control | dose: 32.0 mg/kg/injection, schedule: Q01DX009 (ip), vehicle: Klucel (hydroxypropylcellulose) (HPC) 107 % of control | [1] 116 % of control | dose: 64.0 mg/kg/injection, schedule: Q01DX009 (ip), vehicle: Klucel (hydroxypropylcellulose) (HPC) 104 % of control | [2] 111 % of control | [3] 100 % of control

Cc1ccc(-c2cs/c(=N\N=C3/CSC(=O)N3Cc3ccccc3)n2-c2cccc(C)c2)cc1
inactive: [11] 89 % of control | [12] 89 % of control | [13] 91 % of control

CN(C)[Si](c1ccccc1)(c1ccccc1)N(C)C
inactive: [1] 102 % of control | [2] 102 % of control | [3] 106 % of control

CC1=C(C(=O)CC(=O)C(=O)Nc2ccc(Cl)cc2Cl)Sc2ccccc2N1
inactive: [7] 100 % of control | [8] 100 % of control

Nc1ccc(Cl)cc1C(=O)N1CCN(c2ccc([N+](=O)[O-])cn2)CC1
inactive: dose: 7.5 mg/kg/injection, schedule: Q01DX005 (ip), vehicle: Klucel (hydroxypropylcellulose) (HPC) 99 % of control | dose: 15.0 mg/kg/injection, schedule: Q01DX005 (ip), vehicle: Klucel (hydroxypropylcellulose) (HPC) 92 % of control | [14] 93 % of control

C=CC1CCC[S+]1CC(=O)OCC (stereo unspecified)
inactive: dose: 12.5 mg/kg/injection, schedule: Q01DX005 (ip), vehicle: saline with Tween-80 100 % of control | dose: 25.0 mg/kg/injection, schedule: Q01DX005 (ip), vehicle: saline with Tween-80 105 % of control | dose: 50.0 mg/kg/injection, schedule: Q01DX005 (ip), vehicle: saline with Tween-80 102 % of control and 107 % of control

O=C1Cc2ccccc2N1C(=O)c1ccc(F)cc1
inactive: dose: 100.0 mg/kg/injection, schedule: Q01DX001 (ip), vehicle: Klucel (hydroxypropylcellulose) (HPC) 102 % of control | dose: 200.0 mg/kg/injection, schedule: Q01DX001 (ip), vehicle: Klucel (hydroxypropylcellulose) (HPC) 92 % of control | dose: 400.0 mg/kg/injection, schedule: Q01DX001 (ip), vehicle: Klucel (hydroxypropylcellulose) (HPC) 95 % of control

COc1cc([Se]c2ccccc2)ccc1N(C)C
inactive: [14] 101 % of control | dose: 60.0 mg/kg/injection, schedule: Q01DX005 (ip), vehicle: Klucel (hydroxypropylcellulose) (HPC) 107 % of control | dose: 120.0 mg/kg/injection, schedule: Q01DX005 (ip), vehicle: Klucel (hydroxypropylcellulose) (HPC) 100 % of control | dose: 240.0 mg/kg/injection, schedule: Q01DX005 (ip), vehicle: Klucel (hydroxypropylcellulose) (HPC) 113 % of control

O=S1(=O)CC(c2ccccc2)(N2CCOCC2)C1
inactive: dose: 50.0 mg/kg/injection, schedule: Q01DX009 (ip), vehicle: saline with Tween-80 94 % of control | [9] 96 % of control | [10] 105 % of control

Cc1ccc(C)c(N2C(=O)CC3(CCCC3)C2=O)c1
inactive: [4] 101 % of control | [5] 101 % of control | [6] 99 % of control
